# Reference: PMC8909594, “Direct Interaction of Mitochondrial Cytochrome c Oxidase with Thyroid Hormones: Evidence for Two Binding Sites” (Cells, 2022)
# Where “and” joins values, the source holds several entries; their conditions need not be identical. Equal values may be shown once. Entries after “also recorded” stand apart in the source; their conditions may differ. Read-outs that look alike come from different tables or passages of the source.
# Legend:
# [1] = molecular target: T1, solubilized cytochrome c oxidase (CcO) from bovine heart mitochondria (Bos taurus, UniProt P00396+P68530); test: Oxidase activity of solubilized CcO, oxygen consumption (Clark-type electrode); format: biochemical; settings: for Kd: read-out: Kc, dissociation constant of the DM-CcO complex
# T1 construct: Cytochrome c oxidase (CcO) was purified from heart mitochondria of Bos taurus; from tissue; host or cells: bovine heart mitochondria
# Description: Preparations. Cytochrome c oxidase (CcO) was purified from heart mitochondria of Bos taurus. […] CcO was isolated according to a modified method of Fowler et al. [21] described previously [22].
# [2] = molecular target: solubilized CcO from mitochondria; settings: read-out: Kc (dissociation constant for DM), cited from earlier work
# [3] = system: T2, cytochrome c oxidase (CcO); test: Peroxidase activity of CcO (ferrocyanide peroxidation); format: biochemical, Bos taurus; settings: for rate of peroxidase reaction: 0.5 mM hormone, control 0.19 e−/s, error about 10%
# T2 construct: Cytochrome c oxidase (CcO) was purified from heart mitochondria of Bos taurus; from tissue; host or cells: bovine heart mitochondria
# Protocol: To obtain a redox buffer with Em ≈ 420 mV, equal amounts of ferri- and ferrocyanide were mixed. To facilitate the interaction of ferrocyanide with CcO, 0.2 μM cytochrome c was present.
# Peroxidation of ferrocyanide (0.2 mM) was monitored in the presence of 0.6 μM CcO. […] Trace 1, black = control; trace 2, red = the experiment in the presence of 1 mM T4; trace 3, blue = 1 mM T4 added in the course of the experiment, as indicated.
# mitochondrial CcO = system: mitochondrial CcO; set-up: method as in PMID 8013649; settings: 0.2 μM enzyme; cited from earlier work
# [4] = system: cytochrome c oxidase (electron transfer from heme a to heme a3); test: Level and kinetics of heme a / heme a3 reduction in CcO; settings: pH 8.0, 5 μM RuAm, 5 mM ascorbate
# Protocol: The kinetics of spectral changes were monitored on spectrophotometer SLM Aminco DW-2000 (SLM Instruments, Urbana, IL, USA) in dual-wavelength mode.
# The oxidase reaction was carried out using ascorbate (as an electron source) in combination with the redox mediators RuAm and TMPD. The reduction of CcO was monitored spectrophotometrically.
# The total reduction level of hemes a and a3 was registered. […] The other conditions were as in panel (A) except that 0.1 mM TMPD was used instead of RuAm.
# CcO in proteoliposomes = system: T3, CcO in proteoliposomes; test: Ferrocytochrome c oxidation by CcO in proteoliposomes; format: biochemical, Bos taurus
# T3 construct: Cytochrome c oxidase (CcO) was purified from heart mitochondria of Bos taurus; from tissue; host or cells: bovine heart mitochondria
# Protocol: CcO reconstruction into phospholipid vesicles.
# Cytochrome c was reduced beforehand by dithionite.
# Figure 2 Inhibitory effect of thyroid hormones on the oxidase activity of the membrane-incorporated CcO. […] Proteoliposomes were added to the experimental medium up to 26 nM CcO. The oxidase reaction was initiated by addition of the respiratory substrate. Other details are as in Figure 1B,D. (D) T3-induced inhibition of ferrocytochrome c oxidation by CcO in proteoliposomes. […] Other conditions are as in panel (A) except that proteoliposomes were added to the medium up to 3.25 nM CcO and pre-incubated for 30 min before adding the respiratory substrate. […] Mitochondria were suspended in the experimental medium up to 0.8 mg of protein/mL. Other details are as in Figure 1B,D. (F) Inhibitory effect of T4 on CcO oxidase activity in SMP obtained from bovine heart mitochondria. The conditions were essentially as in panel (E) except that the CcO concentration was 20 nM.
# [5] = system: T4, oxidized cytochrome c oxidase (CcO); test: Formation of CcO oxoferryl intermediates FI-607 and FII-580 with H2O2 (titration, stopped-flow); format: biochemical, Bos taurus
# T4 construct: Cytochrome c oxidase (CcO) was purified from heart mitochondria of Bos taurus; from tissue; host or cells: bovine heart mitochondria
# Protocol: Stopped-flow experiments were performed using a stopped-flow spectrophotometer (Applied Photophysics SX-20, Leatherhead, UK) operated in the diode array mode, using a 20-μL cell with a 1-cm optical pathway.
# Oxoferryl intermediates’ formation was monitored using stopped-flow techniques. CcO in the basic medium, pH 8.1 supplemented with 0.1% DM, 0.05 mM ferricyanide and when necessary, T4 was rapidly mixed with an equal volume of the same buffer containing H2O2.
# We carried out such a titration to evaluate the effects of thyroid hormones on the equilibrium of oxoferryl intermediates.
# Figure 6 Effect of T4 on the formation of CcO oxoferryl intermediates during the reaction with H2O2. The reaction was followed using a diode array spectrophotometer. […] (A, B) Kinetics of the oxoferryl intermediates’ formation. […] (A) Control; (B) CcO was pre-incubated with 0.5 mM T4 until mixing.
# [6] = system: T5, xanthine oxidase from bovine milk; test: Superoxide formation by xanthine oxidase oxidizing hypoxanthine (test for superoxide dismutase activity); format: biochemical; settings: hypoxanthine 50 μM, XOx 0.015 units/mL; 500 μM T4; SOD 20 μg/mL
# T5 construct: xanthine oxidase from bovine milk; purchased Sigma-Aldrich; host or cells: bovine milk
# Description: The conditions were adjusted so that the rate of WST reduction was approximately the same as in panel (A).
# [7] = system: cytochrome c oxidase (CcO); test: Catalase activity of CcO (oxygen release from H2O2); settings: higher hormone concentration (curve 4, 1 mM)
# Protocol: The catalase activity of CcO was detected by a Clark-type electrode in the presence of excess hydrogen peroxide, in 30 mM potassium-phosphate buffer, pH 7.1 supplemented with 2 mM EDTA and 0.05% DM, as described in [26].
# [8] = molecular target: CcO incorporated into azolectin vesicles (proteoliposomes) (Bos taurus, UniProt P00396+P68530); test: Oxidase activity of CcO in proteoliposomes, oxygen consumption
# Protocol: First, the effect of thyroid hormones on CcO incorporated into azolectin vesicles was studied. The activity was assayed in the same way as in solution except for the absence of detergent and presence of protonophore in the medium (see Section 2).
# [9] = molecular target: T6, CcO in SMP obtained from bovine heart mitochondria (Bos taurus, UniProt P00396+P68530); test: CcO oxidase activity in bovine heart submitochondrial particles (SMP); format: biochemical
# T6 construct: Then, CcO in the native mitochondrial membrane was investigated; from tissue; host or cells: bovine heart submitochondrial particles
# Protocol: Preparation of bovine heart submitochondrial particles (SMP). The heavy fraction of bovine heart mitochondria was suspended in 40 mL of 0.3 M sucrose supplemented with 5 mM MgSO4, 1 mM succinate, 1 mM ATP and 10 mM Hepes, pH 8.0. […] Mitochondrial debris was removed by centrifugation for 12 min at 15,000 rpm (Beckman JA-20, Brea, CA, USA). SMP were precipitated from supernatant at 100,000 g for 1 h, washed by 0.3 M sucrose with 10 mM Hepes, pH 7.5 and precipitated as previously described. The final precipitate was suspended in a small volume of the same buffer and frozen. To determine the CcO concentration in the sample, a small amount of SMP was solubilized in 50 mM Hepes/Tris buffer, pH 7.6 containing 1% DM.
# [10] = molecular target: mitochondrial cytochrome c oxidase (CcO) (Bos taurus, UniProt P00426); test: Superoxide generation by CcO in excess H2O2 (WST-1 reduction)
# Protocol: The reaction of superoxide generation catalyzed by CcO in the presence of excess hydrogen peroxide was assayed in the basic medium, pH 7.6 by the classic method [27], monitoring the superoxide dismutase-sensitive reduction of tetrazolium salts to formazan.
# Addition of 0.4 µM T4 is indicated. CcO was added up to 0.5 μM to the experimental medium, supplemented with 0.1 mM WST-1. The reaction was initiated by addition of 4 mM H2O2 (indicated by the arrow). […] Conditions of the measurements are as in panel (A).
molecule,measurement,setting,value
"CCCCCCCCCCCCO[C@@H]1O[C@H](CO)[C@@H](O[C@H]2O[C@H](CO)[C@@H](O)[C@H](O)[C@H]2O)[C@H](O)[C@H]1O [DM, dodecyl-maltoside]",Kd,[1]; from competition with T3 (T3=0),~1120 µM
same,Kd,[1]; from competition with T4 (T4=0),~1100 µM
same,Kd,[2]; from study of CcO inhibition by Triton X-100,1200 µM
same,Kd,[2]; from study of CcO inhibition by estradiol,1470 µM
same,Kd,[2]; from study of CcO inhibition by testosterone,1300 µM
"N[C@@H](Cc1cc(I)c(Oc2ccc(O)cc2)c(I)c1)C(=O)O [T2, 3,5-diiodo-thyronine]",rate of peroxidase reaction,[3],0.21 e^−/s
same,concentration from which effects of T2 start,mitochondrial CcO,10^−7 M
"N[C@@H](Cc1cc(I)c(Oc2ccc(O)c(I)c2)c(I)c1)C(=O)O [T3, L-3,5,3′-triiodide-thyronine]",increase of steady-state level of heme a reduction over control,[4]; 1 mM hormone,~ 75%
same,increase of steady-state level of heme a reduction over control,[4]; 2 mM hormone,~ 115%
same,time of enzyme activity after which inhibition develops,CcO in proteoliposomes; 0.5 mM T3 (~450 turnovers),10 s
same,decrease in the activity compared to the control,"CcO in proteoliposomes; 0.5 mM T3, pre-incubation 30 min, 3.25 nM CcO",approximately twofold decrease
"N[C@@H](Cc1cc(I)c(Oc2cc(I)c(O)c(I)c2)c(I)c1)C(=O)O [T4, L-3,5,3′,5′tetraiodo-thyronine]",decrease of the rate of oxygen consumption,"[1]; […] T4, 20 nM CcO",approximately two times
same,extent of inhibition of enzyme activity,[1]; lowest tested DM concentrations (0.02% and 0.05%),70–80%
same,Ki,"[1]; oxygen consumption, pH 7.6, 25 °C, from linear dependence of Ki(app) on [DM] 0.4–10 mM, DM=0, read-out: true inhibition constant Ki (in the absence of DM)",~100 µM and 100 µM
same,Ki,"[1]; solubilized enzyme, Figure 1C,E, read-out: Ki",~100 µM
same,increase of steady-state level of heme a reduction over control,[4]; 1 mM hormone,~ 50%
same,deviation of FI-607 (lower) and FII-580 (higher) concentration from control,"[5]; 0.5 mM T4, 15 s after mixing",about 10%
same,acceleration of formation of FII-580 (form 580),[5]; 0.5 mM hormone,23% and 20–25%
same,decrease in the quasi-stationary concentration ratio [FI-607]/[FII-580] vs control,"[5]; 0.5 mM hormone, titration of oxidized CcO with peroxide",15–25%
same,effect on the rate of dye (WST) reduction,[6],does not affect the rate of dye reduction
same,rate of peroxidase reaction,[3],0.22 e^−/s
same,effect on the rate of ferrocyanide peroxidation,"[3]; 1 mM T4, 0.6 μM CcO, 4 mM H2O2",does not noticeably change; also recorded: complete resistance
same,suppression of catalase activity,[7],10–20%
same,Ki,[8],310 µM
same,extent of inhibition,[9],complete inhibition
same,Ki,[9]; 20 nM CcO,2200 ± 200 µM
same,Ki,[10],0.3 µM
same,drop of the rate of WST-1 reduction (superoxide production),[10]; 0.4 μM T4,drops threefold
"superoxide dismutase: superoxide dismutase from bovine erythrocytes, control blocking WST reduction",effect on the rate of dye (WST) reduction,[6],completely blocked
